The NIST ThermoML archive (doi:10.1021/je050327l)
Numbers after ± are expanded uncertainties. Each block holds one compound with its values, some of them ahead of it.

Conditions: Liquid, Ebulliometric method (Recirculating still)

vapor or sublimation pressure (373.1 K): 3.056 ± 0.084 kPa | vapor or sublimation pressure (423.15 K): 20.97 ± 0.14 kPa
SMILES: CC(C=O)c1ccccc1 (stereo unspecified) [2-phenylpropanal]

vapor or sublimation pressure (373.1 K): 5.529 ± 0.11 kPa | vapor or sublimation pressure (423.15 K): 39.18 ± 0.2 kPa
SMILES: Oc1ccccc1 [phenol]

vapor or sublimation pressure (373.1 K): 23.38 ± 0.23 kPa | vapor or sublimation pressure (413.15 K): 96.29 ± 0.45 kPa
SMILES: CCC(=O)O [propanoic acid]

The next lines start with the compound.

SMILES: COCC(C)O (stereo unspecified) [1-methoxy-2-propanol]
vapor or sublimation pressure (313.15 K): 3.614 ± 0.093 kPa | vapor or sublimation pressure (353.15 K): 24.18 ± 0.15 kPa

SMILES: CCCC(=O)O [butanoic acid]
vapor or sublimation pressure (373.1 K): 9.38 ± 0.13 kPa | vapor or sublimation pressure (413.15 K): 45.85 ± 0.23 kPa

SMILES: COC [dimethyl ether]
vapor or sublimation pressure (253.05 K): 125 ± 1.1 kPa | vapor or sublimation pressure (293.15 K): 508.1 ± 2.2 kPa

SMILES: CC[N+](=O)[O-] [nitroethane]
vapor or sublimation pressure (313.15 K): 6.097 ± 0.11 kPa | vapor or sublimation pressure (353.15 K): 33.11 ± 0.18 kPa

SMILES: C=CC [propene]
vapor or sublimation pressure (253.05 K): 307.2 ± 2.2 kPa | vapor or sublimation pressure (293.15 K): 1015.9 ± 4.4 kPa
